# Data: PubChem BioAssay AID250 (DTP/NCI, 2004)
# “And” between values parts separate entries of the source, which are not always exact repeats. Identical values can stand only once. Toxic doses and inconclusive results are not listed.
# Test system: BDF1 mice, L1210 leukemia sc, survival T/C
# Assay: NCI In Vivo Anticancer Drug Screen. Data for tumor model L1210 Leukemia (subcutaneous) in B6D2F1 (BDF1) mice
# Conditions: higher = longer survival
# Outline: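 Transplantable tumor-bearing mice; survival or tumor size recorded; result = T/C, treated vs vehicle control.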
smiles,measurement,setting,value
O=P1(N(CCCl)CCCl)NCCCO1 (centres undefined),T/C,"endpoint: mean survival time, dose: 70.0 mg/kg/injection, schedule: Q01DX001 (ip), vehicle: saline",161 % of control
same,T/C,"endpoint: mean survival time, dose: 100.0 mg/kg/injection, schedule: Q08DX003 (sc), vehicle: saline",190 % of control
same,T/C,"endpoint: mean survival time, dose: 140.0 mg/kg/injection, schedule: Q01DX001 (ip), vehicle: saline",180 % of control
same,T/C,"endpoint: mean survival time, dose: 200.0 mg/kg/injection, schedule: Q01DX001 (ip), vehicle: saline",219 % of control
same,T/C,"endpoint: mean survival time, dose: 200.0 mg/kg/injection, schedule: Q08DX003 (sc), vehicle: saline",221 % of control
same,T/C,"endpoint: mean survival time, dose: 280.0 mg/kg/injection, schedule: Q01DX001 (ip), vehicle: saline",232 % of control
same,T/C,"endpoint: mean survival time, dose: 400.0 mg/kg/injection, schedule: Q08DX003 (sc), vehicle: saline",171 % of control
same,T/C,"endpoint: mean survival time, dose: 560.0 mg/kg/injection, schedule: Q01DX001 (ip), vehicle: saline",91 % of control
same,T/C,"endpoint: median survival time, dose: 6.25 mg/kg/injection, schedule: Q01DX009 (ip), vehicle: saline",104 % of control
same,T/C,"endpoint: median survival time, dose: 6.25 mg/kg/injection, schedule: Q01DX009 (sc), vehicle: saline",98 % of control and 101 % of control
same,T/C,"endpoint: median survival time, dose: 8.4 mg/kg/injection, schedule: Q01DX Z (ip), vehicle: saline",100 % of control
same,T/C,"endpoint: median survival time, dose: 10.8 mg/kg/injection, schedule: Q01DX001 (ip), vehicle: saline",150 % of control
same,T/C,"endpoint: median survival time, dose: 12.5 mg/kg/injection, schedule: Q01DX009 (sc), vehicle: saline",107 % of control and 112 % of control
same,T/C,"endpoint: median survival time, dose: 14.0 mg/kg/injection, schedule: Q01DX Z (ip), vehicle: saline",110 % of control and 117 % of control
same,T/C,"endpoint: median survival time, dose: 14.0 mg/kg/injection, schedule: Q01DX Z (oral), vehicle: saline",104 % of control
same,T/C,"endpoint: median survival time, dose: 14.0 mg/kg/injection, schedule: Q01DX Z (sc), vehicle: other",110 % of control
same,T/C,"endpoint: median survival time, dose: 14.0 mg/kg/injection, schedule: Q#A X Z (sc), vehicle: saline",220 % of control
same,T/C,"endpoint: median survival time, dose: 18.0 mg/kg/injection, schedule: Q01DX001 (ip), vehicle: saline",200 % of control
same,T/C,"endpoint: median survival time, dose: 23.0 mg/kg/injection, schedule: Q01DX Z (ip), vehicle: saline",165 % of control
same,T/C,"endpoint: median survival time, dose: 23.0 mg/kg/injection, schedule: Q01DX Z (oral), vehicle: saline",120 % of control
same,T/C,"endpoint: median survival time, dose: 23.0 mg/kg/injection, schedule: Q01DX Z (sc), vehicle: other",195 % of control
same,T/C,"endpoint: median survival time, dose: 23.0 mg/kg/injection, schedule: Q## X Z (sc), vehicle: saline",110 % of control
same,T/C,"endpoint: median survival time, dose: 25.0 mg/kg/injection, schedule: Q01DX009 (ip), vehicle: saline",122 % of control
same,T/C,"endpoint: median survival time, dose: 39.0 mg/kg/injection, schedule: Q01DX Z (ip), vehicle: saline",243 % of control
same,T/C,"endpoint: median survival time, dose: 39.0 mg/kg/injection, schedule: Q01DX Z (oral), vehicle: saline",155 % of control and 215 % of control and 221 % of control
same,T/C,"endpoint: median survival time, dose: 39.0 mg/kg/injection, schedule: Q02DX Z (sc), vehicle: saline",225 % of control
same,T/C,"endpoint: median survival time, dose: 39.0 mg/kg/injection, schedule: Q07DX Z (sc), vehicle: saline",113 % of control and 115 % of control and 123 % of control
same,T/C,"endpoint: median survival time, dose: 39.0 mg/kg/injection, schedule: Q## X Z (sc), vehicle: saline",150 % of control
same,T/C,"endpoint: median survival time, dose: 39.0 mg/kg/injection, schedule: Q#A X Z (sc), vehicle: saline",230 % of control
same,T/C,"endpoint: median survival time, dose: 50.0 mg/kg/injection, schedule: Q01DX009 (ip), vehicle: saline",162 % of control
same,T/C,"endpoint: median survival time, dose: 50.0 mg/kg/injection, schedule: Q01DX009 (sc), vehicle: saline",163 % of control and 181 % of control
same,T/C,"endpoint: median survival time, dose: 50.0 mg/kg/injection, schedule: Q08DX003 (sc), vehicle: saline",122 % of control
same,T/C,"endpoint: median survival time, dose: 65.0 mg/kg/injection, schedule: Q01DX Z (ip), vehicle: saline",213 % of control
same,T/C,"endpoint: median survival time, dose: 65.0 mg/kg/injection, schedule: Q01DX Z (oral), vehicle: saline",161 % of control and 182 % of control
same,T/C,"endpoint: median survival time, dose: 65.0 mg/kg/injection, schedule: Q01DX Z (sc), vehicle: other",240 % of control
same,T/C,"endpoint: median survival time, dose: 65.0 mg/kg/injection, schedule: Q07DX Z (sc), vehicle: saline",165 % of control and 175 % of control
same,T/C,"endpoint: median survival time, dose: 65.0 mg/kg/injection, schedule: Q#A X Z (sc), vehicle: saline",150 % of control
same,T/C,"endpoint: median survival time, dose: 69.0 mg/kg/injection, schedule: Q07DX003 (sc), vehicle: saline",188 % of control and 190 % of control
same,T/C,"endpoint: median survival time, dose: 100.0 mg/kg/injection, schedule: Q07DX003 (sc), vehicle: saline",244 % of control
same,T/C,"endpoint: median survival time, dose: 100.0 mg/kg/injection, schedule: Q07DX004 (sc), vehicle: saline",211 % of control and 213 % of control
same,T/C,"endpoint: median survival time, dose: 100.0 mg/kg/injection, schedule: Q16DX002 (sc), vehicle: saline",157 % of control and 161 % of control (2×)
same,T/C,"endpoint: median survival time, dose: 100.0 mg/kg/injection, schedule: Q## X002 (sc), vehicle: saline",155 % of control
same,T/C,"endpoint: median survival time, dose: 108.0 mg/kg/injection, schedule: Q01DX001 (sc), vehicle: other",160 % of control
same,T/C,"endpoint: median survival time, dose: 108.0 mg/kg/injection, schedule: Q01DX014 (sc), vehicle: saline",163 % of control
same,T/C,"endpoint: median survival time, dose: 108.0 mg/kg/injection, schedule: Q01DX Z (ip), vehicle: saline",113 % of control
same,T/C,"endpoint: median survival time, dose: 108.0 mg/kg/injection, schedule: Q01DX Z (oral), vehicle: saline",208 % of control and 240 % of control
same,T/C,"endpoint: median survival time, dose: 108.0 mg/kg/injection, schedule: Q01DX Z (sc), vehicle: other",180 % of control
same,T/C,"endpoint: median survival time, dose: 108.0 mg/kg/injection, schedule: Q07DX Z (sc), vehicle: saline",171 % of control
same,T/C,"endpoint: median survival time, dose: 108.0 mg/kg/injection, schedule: Q08DX003 (ip), vehicle: saline",109 % of control
same,T/C,"endpoint: median survival time, dose: 180.0 mg/kg/injection, schedule: Q01DX001 (sc), vehicle: other",191 % of control
same,T/C,"endpoint: median survival time, dose: 180.0 mg/kg/injection, schedule: Q01DX014 (sc), vehicle: saline",217 % of control
same,T/C,"endpoint: median survival time, dose: 180.0 mg/kg/injection, schedule: Q02DX Z (sc), vehicle: saline",170 % of control
same,T/C,"endpoint: median survival time, dose: 180.0 mg/kg/injection, schedule: Q07DX Z (sc), vehicle: saline",195 % of control and 226 % of control
same,T/C,"endpoint: median survival time, dose: 180.0 mg/kg/injection, schedule: Q08DX003 (ip), vehicle: saline",121 % of control
same,T/C,"endpoint: median survival time, dose: 200.0 mg/kg/injection, schedule: Q01DX001 (ip), vehicle: saline",200 % of control and 205 % of control
same,T/C,"endpoint: median survival time, dose: 200.0 mg/kg/injection, schedule: Q16DX002 (sc), vehicle: saline",183 % of control and 206 % of control (2×)
same,T/C,"endpoint: median survival time, dose: 200.0 mg/kg/injection, schedule: Q## X002 (sc), vehicle: saline",180 % of control
same,T/C,"endpoint: median survival time, dose: 256.0 mg/kg/injection, schedule: Q01DX001 (sc), vehicle: saline",213 % of control and 215 % of control
same,T/C,"endpoint: median survival time, dose: 300.0 mg/kg/injection, schedule: Q01DX001 (ip), vehicle: saline",240 % of control and 242 % of control
same,T/C,"endpoint: median survival time, dose: 300.0 mg/kg/injection, schedule: Q01DX001 (sc), vehicle: other",243 % of control
same,T/C,"endpoint: median survival time, dose: 300.0 mg/kg/injection, schedule: Q01HX002 (ip), vehicle: saline",113 % of control
same,T/C,"endpoint: median survival time, dose: 300.0 mg/kg/injection, schedule: Q07DX Z (sc), vehicle: saline",217 % of control and 219 % of control
same,T/C,"endpoint: median survival time, dose: 300.0 mg/kg/injection, schedule: Q08DX003 (ip), vehicle: saline",113 % of control
same,T/C,"endpoint: median survival time, dose: 300.0 mg/kg/injection, schedule: Q16DX002 (ip), vehicle: saline",115 % of control
same,T/C,"endpoint: median survival time, dose: 320.0 mg/kg/injection, schedule: Q01DX001 (sc), vehicle: saline",235 % of control and 240 % of control
same,T/C,"endpoint: median survival time, dose: 400.0 mg/kg/injection, schedule: Q07DX004 (sc), vehicle: saline",166 % of control
same,T/C,"endpoint: median survival time, dose: 400.0 mg/kg/injection, schedule: Q16DX002 (sc), vehicle: saline",222 % of control and 239 % of control (2×)
same,T/C,"endpoint: median survival time, dose: 400.0 mg/kg/injection, schedule: Q## X002 (sc), vehicle: saline",220 % of control
same,T/C,"endpoint: median survival time, dose: 500.0 mg/kg/injection, schedule: Q01DX001 (sc), vehicle: other",217 % of control
